# Patent publication US9283242B2, “Uses of dihydro bases” (priority 2013, dated 2016)
# Legend:
# [1] = Mutagenesis model: base-pairing preference of tautomers combined with NMR tautomeric distribution; conditions: assuming imine geometric isomers present in equal proportions
# Method: One of the fundamental assumptions in developing a mutagenesis model is that each KP1212 tautomer has a distinct base-pairing preference. To establish these preferences, in a relatively simple modeling exercise each tautomer was analyzed for its most probable base-pairing partner on the basis of hydrogen bonding. The primary criterion for correct base-pairing was formation of the maximum number of Watson-Crick type hydrogen bonds between the bases. Each type of hydrogen bond was considered to confer an equal stabilization energy. Configurations in which multiple base pairs had equal hydrogen bond numbers were considered equally probable. Since KP1212 is a cytosine (pyrimidine) analog, and the primary mutagenic events are A to G or G to A, our modeling exercise explored only purine-pyrimidine putative base pairs. Several KP1212 tautomers featured a canonical Watson-Crick face. Thus, tautomers enol-amino (1), enol-imino (2Z) and keto-amino (4) were predicted to pair with guanine, while keto-imino (5E) was predicted to pair with adenine (FIG. 19). The remaining tautomers could not adopt a canonical Watson-Crick face and therefore were hypothesized to pair in other geometries (i.e., wobble pairings, or syn-conformer pairings). […]
# PfuTurbo DNA polymerase = PfuTurbo DNA polymerase (Pyrococcus furiosus, UniProt P61875); assay: In vitro polymerase extension assay on KP1212-containing M13 template; type: biochemical
# Sequence of PfuTurbo DNA polymerase (P61875 whole entry): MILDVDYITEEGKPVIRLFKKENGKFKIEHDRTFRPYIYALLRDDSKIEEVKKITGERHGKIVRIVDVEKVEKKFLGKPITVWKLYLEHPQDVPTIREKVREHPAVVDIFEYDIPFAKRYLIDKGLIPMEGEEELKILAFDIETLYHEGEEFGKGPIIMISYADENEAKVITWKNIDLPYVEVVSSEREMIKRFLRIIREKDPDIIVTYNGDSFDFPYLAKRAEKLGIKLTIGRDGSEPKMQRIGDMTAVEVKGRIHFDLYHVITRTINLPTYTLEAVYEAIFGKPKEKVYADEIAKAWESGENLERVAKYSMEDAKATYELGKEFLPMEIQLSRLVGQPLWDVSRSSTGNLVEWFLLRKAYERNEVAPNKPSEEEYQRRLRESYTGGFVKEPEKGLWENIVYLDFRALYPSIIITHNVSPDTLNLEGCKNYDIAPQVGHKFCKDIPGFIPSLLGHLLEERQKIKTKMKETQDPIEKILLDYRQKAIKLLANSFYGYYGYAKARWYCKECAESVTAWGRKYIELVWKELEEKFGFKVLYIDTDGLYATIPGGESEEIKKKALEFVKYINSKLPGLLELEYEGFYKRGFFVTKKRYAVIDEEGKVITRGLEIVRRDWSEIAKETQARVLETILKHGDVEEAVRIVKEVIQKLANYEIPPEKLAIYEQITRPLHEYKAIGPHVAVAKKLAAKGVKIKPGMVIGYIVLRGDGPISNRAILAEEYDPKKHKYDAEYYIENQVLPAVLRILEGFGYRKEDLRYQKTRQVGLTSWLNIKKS
# Method: (A) A 16mer oligonucleotide containing KP1212 (SEQ ID NO: 1) (or controls) at a specific site was chemically synthesized and ligated into the genome of an M13 bacteriophage. (B) The KP1212-containing M13 genomes were replicated within E. coli cells. Progeny were analyzed to characterize the amount and the type of nucleic acid base placed opposite the lesion during replication. The relative reduction in lesion vs. non-lesion competitor progeny formation was used as an estimate of the extent to which KP1212 and m3C inhibited DNA replication. (C) The KP1212-containing M13 genomes were used as templates for in vitro polymerase extension assays, carried out at 72° C., using the high-fidelity DNA polymerase PfuTurbo. (D) Bypass efficiency (CRAB assay) of KP1212, m3C, C in HK81 (AlkB^+) and HK82 (AlkB^−) E. coli cells. m3C and undamaged C were used as controls. Genomes were made and normalized to one another before being combined with a competitor genome. Each mixture was transformed into the corresponding cell strain in triplicate, and bypass efficiency was calculated by using the undamaged C genome as 100% bypass, with error bars representing one standard deviation. (E) Mutagenesis (REAP assay) of KP1212, m3C, and C in HK82 (AlkB^−) E. coli cells. m3C, undamaged C, and an approximately equimolar mixture of genomes carrying unmodified G/A/T/C bases at the site of inquiry (denoted as GATC) were used as controls. Genomes containing the lesions of interest were transfected into E. coli in triplicate.
# The single-stranded, lesion-containing genomes, constructed above were also used as templates for in vitro polymerase extension assays. Fifty fmol of each genome were mixed with 50 pmol of REAP forward and reverse primers, 1.25 U Pfu Turbo DNA polymerase and 5 nmol of each dNTP in 1×Pfu Turbo buffer. […] Subsequently, 29 PCR cycles amplified the newly formed strand and generated a product that was then analyzed using the exact downstream steps of the REAP assay described above. […]
# [2] = in vitro, 72° C., PfuTurbo DNA polymerase (FIG. 18C)
smiles,measurement,setting,value
"NC1=NC(=O)N([C@H]2C[C@H](O)[C@@H](CO)O2)CN1 [KP1212, 5-aza-5,6-dihydro-2′-deoxycytidine]",model-predicted pairing with A,[1],~20 % of the time
same,model-predicted pairing with G,[1],~80 % of the time
same,pH dependence of mispairing frequency,"PfuTurbo DNA polymerase; in vitro polymerase extension reaction, pH 7.0 and 7.8, preliminary studies",did not vary significantly
same,A placed opposite KP1212,PfuTurbo DNA polymerase; [2],9.5 % of the time
same,G placed opposite KP1212,PfuTurbo DNA polymerase; [2],90.5 % of the time
